Measured values from patent US9682940B2, “Indazole derivatives useful as CB-1 inverse agonists” (Janssen Pharmaceutica NV, priority 2015, dated 2017).

What was measured:
[1] = target: Human CB1R (Cannabanoid receptor 1) (Homo sapiens (Human), UniProt P21554); assay: CB-1 in vitro cAMP (HTRF) assay in HEK-293 cells; assay type: cell-based; settings: HEK-293 cells stably transfected with human CB1R, 250 nM Forskolin, mean where tested more than once, read-out: CB-1 (HEK_cAMP) EC50
From the text: (§1) CB1 and CB2 receptors are Gi-coupled GPCR. Activation of CB1 and CB2 receptors results in a decrease in cAMP production. An inverse agonist of the CB1 or CB2 receptor results in the opposite effect, an increase of cAMP production. The principle of this assay is based on HTRF® technology (Homogeneous Time-Resolved Fluorescence). The method is a competitive immunoassay between native cAMP produced by cells and the cAMP labeled with the fluorophore d2. The tracer binding is quantified by a Mab anti-cAMP labeled with Eu3+TBP-NHS Cryptate (supplied as part of the assay kit). The specific signal (i.e. energy transfer) is inversely proportional to the concentration of cAMP in the standard or sample.
(§2) Human CB1R (Cannabanoid receptor 1) was stably transfected in HEK-293 cells (DiscoveRx, cat: 93-0200C1). Human CB2R (Cannabanoid receptor 2) was stably transfected in HEK-293 cells (DiscoveRx, cat: 93-0201C1). Cell cultures were maintained in media: DMEM (Invitrogen Cat#12430-054) supplemented with 10% HI FBS (Invitrogen Cat#16140-071), 1% L-glutamine (Invitrogen Cat#25030-081), 0.2 mg/ml Hygromycin B (Invitrogen Cat#10687-010), 600 μg/mL G418 (Invitrogen Cat#10131-035), and 1× Penn/Strep (Invitrogen 15140-122). After cell expansion, aliquots were cryo-stored in media containing 5% DMSO (Pierce Cat#20684).
(§3) One day prior to experiments media was warmed to 37° C. and the cryo-stored cells were thawed in a 37° C. water bath. The cells were then added to media (10× volume) and the mixture was centrifugated at 1000 RPM for 5 min. The supernate was removed and the cells were re-suspended in media. A sample of the cell suspension was evaluated on a Cedex XS automated cell counter (Innovatis Systems) to determine viable cells/ml. Additional media was added to the cells to achieve a final cell density of 4E5 cells/mL. The cells were then plated into 384 well PDL white solid bottom plates (Greiner, Cat#781945) at 20 μL per well using a Multidrop (Thermo Scientific). Cells were removed from Row P (location of cAMP standards). Two columns of cells were plated into a clear bottom 384 well PDL coated plate (Greiner, Cat#781944) to view confluence the day of the assay. The cell plates were lidded and stored for 15 minutes in a hood, then transferred to an incubator (37° C., 5% CO2, 95% humidity) overnight.
(§4) DMSO was added to all wells of 384 well V bottom polystyrene plate (Greiner, Cat#781280) except to columns 1 and 13, rows O and P and wells M13-M23 and N13-N23. Test compounds (60 μL, 10 mM) were added to Column 1 and 13 (A1 through N1 and A13 through L13). Test compounds were serially diluted 1/3 by transferring and mixing 20 μl sample with 40 μL DMSO.
(§5) DMSO (40 μL) was added to wells of 384 well V bottom polystyrene plate: O2 through O11, M14 through M23, N14 through N23, and O14 through 023. AM630 (also known as [6-iodo-2-methyl-1-[2-(4-morpholinyl)ethyl]-1H-indol-3-yl](4-methoxyphenyl)-methanone, Cayman Chemical, Cat#10006974) (60 μL, 10 mM) was added to 01; and 1-(2,4-dichlorophenyl)-7-[(4-fluorophenyl)methylene]-4,5,6,7-tetrahydro-N-1-piperidinyl-1H-indazole-3-carboxamide (60 μL, 10 mM) was added to N13. The control was serially diluted 1/3 by transferring and mixing 20 μl sample with 40 μL DMSO. This process resulted 11 doses per control, 10 mM to […].
(§6) Cells plated the day prior to the assay in clear bottom plates were viewed on an inverse microscope to ensure confluency in the range of 60-75%. […]

[2] = target: Human CB2R (Cannabanoid receptor 2) (Homo sapiens (Human), UniProt P34972); assay: CB-2 in vitro cAMP (HTRF) assay in HEK-293 cells; assay type: cell-based; settings: HEK-293 cells stably transfected with human CB2R, 250 nM Forskolin, mean where tested more than once, read-out: CB-2 (HEK_cAMP) EC50
From the text: as §1, §2, §3, §4, §5, §6

Sequence of Human CB2R (Cannabanoid receptor 2) (P34972 whole entry): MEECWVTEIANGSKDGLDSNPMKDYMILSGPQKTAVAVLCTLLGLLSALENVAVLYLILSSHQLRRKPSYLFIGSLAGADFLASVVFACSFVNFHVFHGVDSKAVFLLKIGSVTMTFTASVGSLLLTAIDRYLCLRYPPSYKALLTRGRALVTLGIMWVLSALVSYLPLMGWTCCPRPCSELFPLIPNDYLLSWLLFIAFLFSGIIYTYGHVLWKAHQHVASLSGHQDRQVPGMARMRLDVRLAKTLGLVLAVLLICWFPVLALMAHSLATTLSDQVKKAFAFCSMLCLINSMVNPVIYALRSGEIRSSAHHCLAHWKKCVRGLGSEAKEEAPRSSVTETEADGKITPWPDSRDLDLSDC
Sequence of Human CB1R (Cannabanoid receptor 1) (P21554 whole entry): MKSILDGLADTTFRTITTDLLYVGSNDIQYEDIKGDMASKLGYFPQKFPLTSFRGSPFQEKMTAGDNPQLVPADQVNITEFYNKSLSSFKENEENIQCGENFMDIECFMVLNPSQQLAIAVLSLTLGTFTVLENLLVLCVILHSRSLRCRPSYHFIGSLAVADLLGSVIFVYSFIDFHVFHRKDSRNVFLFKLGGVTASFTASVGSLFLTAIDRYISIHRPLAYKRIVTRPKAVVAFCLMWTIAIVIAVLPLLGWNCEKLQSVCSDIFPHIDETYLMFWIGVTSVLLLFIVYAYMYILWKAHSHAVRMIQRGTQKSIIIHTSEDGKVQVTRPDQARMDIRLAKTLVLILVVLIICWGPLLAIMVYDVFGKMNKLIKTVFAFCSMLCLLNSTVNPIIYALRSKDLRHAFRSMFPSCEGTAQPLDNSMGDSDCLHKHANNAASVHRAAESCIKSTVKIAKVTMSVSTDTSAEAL

SMILES | EC50 [1] | EC50 [2]
NC(=O)Cn1nc(N2CCN(S(=O)(=O)C(F)(F)F)CC2)c2cc(C(c3ccc(Cl)cc3)c3ccc(Cl)cc3)ccc21 [Compound 19] | 0.084 µM | > 10 µM
COC(=O)Cn1nc(N2CCN(S(=O)(=O)C(F)(F)F)CC2)c2cc(C(c3ccc(Cl)cc3)c3ccc(Cl)cc3)ccc21 [Compound 20] | 0.165 µM | > 10 µM
CCOC(=O)CS(=O)(=O)N1CCC(c2n[nH]c3ccc(C(c4ccc(Cl)cc4)c4ccc(Cl)cc4)cc23)CC1 [Compound 21] | 0.17 µM | > 10 µM
O=C(O)CS(=O)(=O)N1CCC(c2n[nH]c3ccc(C(c4ccc(Cl)cc4)c4ccc(Cl)cc4)cc23)CC1 [Compound 22] | 0.249 µM | > 10 µM
NS(=O)(=O)N1CCC(c2n[nH]c3ccc(C(c4ccc(Cl)cc4)c4ccc(Cl)cc4)cc23)CC1 [Compound 23] | 2.15 µM | > 10 µM
COC(=O)c1ccc(S(=O)(=O)N2CCC(c3n[nH]c4ccc(C(c5ccc(Cl)cc5)c5ccc(Cl)cc5)cc34)CC2)cc1 [Compound 24] | 0.151 µM | > 10 µM
NC(=O)CS(=O)(=O)N1CCC(c2n[nH]c3ccc(C(c4ccc(Cl)cc4)c4ccc(Cl)cc4)cc23)CC1 [Compound 25] | 1.23 µM | > 10 µM
O=S(=O)(N1CCN(c2n[nH]c3ccc(C(c4ccc(Cl)cc4)c4ccc(Cl)cc4)cc23)CC1)C(F)(F)F [Compound 26] | 0.005 µM | > 10 µM
O=C(O)c1ccc(S(=O)(=O)N2CCC(c3n[nH]c4ccc(C(c5ccc(Cl)cc5)c5ccc(Cl)cc5)cc34)CC2)cc1 [Compound 27] | 0.41 µM | > 10 µM
NC(=O)c1ccc(S(=O)(=O)N2CCC(c3n[nH]c4ccc(C(c5ccc(Cl)cc5)c5ccc(Cl)cc5)cc34)CC2)cc1 [Compound 28] | 0.134 µM | > 10 µM
O=S(=O)(N1CCN(c2nn(S(=O)(=O)C(F)(F)F)c3ccc(C(c4ccc(Cl)cc4)c4ccc(Cl)cc4)cc23)CC1)C(F)(F)F [Compound 29] | 1.49 µM | > 10 µM
COC(=O)c1ccccc1S(=O)(=O)N1CCC(c2n[nH]c3ccc(C(c4ccc(Cl)cc4)c4ccc(Cl)cc4)cc23)CC1 [Compound 31] | 0.128 µM | 2.34 µM
O=S(=O)(c1ccc(C(F)(F)F)cc1)N1CCC(c2n[nH]c3ccc(C(c4ccc(Cl)cc4)c4ccc(Cl)cc4)cc23)CC1 [Compound 32] | 0.071 µM | > 10 µM
O=S(=O)(c1ccccc1C(F)(F)F)N1CCC(c2n[nH]c3ccc(C(c4ccc(Cl)cc4)c4ccc(Cl)cc4)cc23)CC1 [Compound 33] | 0.049 µM | > 10 µM
O=C(O)c1ccccc1S(=O)(=O)N1CCC(c2n[nH]c3ccc(C(c4ccc(Cl)cc4)c4ccc(Cl)cc4)cc23)CC1 [Compound 34] | 6.03 µM | 7.5 µM
O=S(=O)(N1CCC(c2nn(-c3nccs3)c3ccc(C(c4ccc(Cl)cc4)c4ccc(Cl)cc4)cc23)CC1)C(F)(F)F [Compound 37] | 0.008 µM | > 10 µM
CC(C)(C)OC(=O)N1CCC(c2n[nH]c3ccc(C(c4ccc(Cl)cc4)c4ccc(Cl)cc4)cc23)CC1 [Compound 39] | 0.144 µM | > 10 µM
NC(=O)c1ccccc1S(=O)(=O)N1CCC(c2n[nH]c3ccc(C(c4ccc(Cl)cc4)c4ccc(Cl)cc4)cc23)CC1 [Compound 40] | 0.297 µM | 10.2 µM
O=C(O)CC(=O)N1CCC(c2n[nH]c3ccc(C(c4ccc(Cl)cc4)c4ccc(Cl)cc4)cc23)CC1 [Compound 41] | 1.65 µM | > 10 µM
O=S(=O)(N1CCN(c2nn(CCO)c3ccc(C(c4ccc(Cl)cc4)c4ccc(Cl)cc4)cc23)CC1)C(F)(F)F [Compound 42] | 0.006 µM | > 10 µM

SMILES | EC50 [1] | EC50 [2]
NC(=O)CCC(=O)N1CCC(c2n[nH]c3ccc(C(c4ccc(Cl)cc4)c4ccc(Cl)cc4)cc23)CC1 [Compound 43] | 0.169 µM | > 10 µM
CC(=O)n1nc(N2CCN(S(=O)(=O)C(F)(F)F)CC2)c2cc(C(c3ccc(Cl)cc3)c3ccc(Cl)cc3)ccc21 [Compound 44] | 0.014 µM | > 10 µM
O=C(O)c1ccccc1Cn1nc(N2CCN(S(=O)(=O)C(F)(F)F)CC2)c2cc(C(c3ccc(Cl)cc3)c3ccc(Cl)cc3)ccc21 [Compound 45] | 0.941 µM | > 10 µM
O=S(=O)(N1CCC(c2nn(-c3ccc(C(F)(F)F)cc3)c3ccc(C(c4ccc(Cl)cc4)c4ccc(Cl)cc4)cc23)CC1)C(F)(F)F [Compound 46] | 0.04 µM | > 10 µM
O=S(=O)(N1CCC(c2nn(-c3cccc(Cl)c3)c3ccc(C(c4ccc(Cl)cc4)c4ccc(Cl)cc4)cc23)CC1)C(F)(F)F [Compound 47] | 0.041 µM | > 10 µM
O=S(=O)(N1CCC(c2nn(-c3ccccc3Cl)c3ccc(C(c4ccc(Cl)cc4)c4ccc(Cl)cc4)cc23)CC1)C(F)(F)F [Compound 48] | 0.031 µM | > 10 µM
O=S(=O)(N1CCC(c2nn(-c3ccc(OC(F)(F)F)cc3)c3ccc(C(c4ccc(Cl)cc4)c4ccc(Cl)cc4)cc23)CC1)C(F)(F)F [Compound 49] | 0.018 µM | > 10 µM
O=S(=O)(N1CCC(c2nn(-c3ccc(F)cc3)c3ccc(C(c4ccc(F)cc4)c4ccc(Cl)cc4)cc23)CC1)C(F)(F)F (stereo not drawn) [Compound 50] | 0.059 µM | > 10 µM
COC(=O)CC(=O)N1CCC(c2n[nH]c3ccc(C(c4ccc(Cl)cc4)c4ccc(Cl)cc4)cc23)CC1 [Compound 51] | 0.152 µM | > 10 µM
O=C(O)COCCn1nc(N2CCN(S(=O)(=O)C(F)(F)F)CC2)c2cc(C(c3ccc(Cl)cc3)c3ccc(Cl)cc3)ccc21 [Compound 52] | 0.499 µM | > 10 µM
O=S(=O)(CC(F)(F)F)N1CCC(c2n[nH]c3ccc(C(c4ccc(Cl)cc4)c4ccc(Cl)cc4)cc23)CC1 [Compound 53] | 0.049 µM | > 10 µM
O=S(=O)(C1CC1)N1CCC(c2n[nH]c3ccc(C(c4ccc(Cl)cc4)c4ccc(Cl)cc4)cc23)CC1 [Compound 54] | 0.027 µM | > 10 µM
NC(=O)c1ccccc1Cn1nc(N2CCN(S(=O)(=O)C(F)(F)F)CC2)c2cc(C(c3ccc(Cl)cc3)c3ccc(Cl)cc3)ccc21 [Compound 55] | 0.649 µM | > 10 µM
O=C(CC(F)(F)F)N1CCC(c2n[nH]c3ccc(C(c4ccc(Cl)cc4)c4ccc(Cl)cc4)cc23)CC1 [Compound 56] | 0.072 µM | > 10 µM
O=S(=O)(N1CCC(c2nn(-c3cccc(C(F)(F)F)c3)c3ccc(C(c4ccc(Cl)cc4)c4ccc(Cl)cc4)cc23)CC1)C(F)(F)F [Compound 57] | 0.474 µM | > 10 µM
O=S(=O)(N1CCC(c2nn(-c3ccc(Cl)c(Cl)c3)c3ccc(C(c4ccc(Cl)cc4)c4ccc(Cl)cc4)cc23)CC1)C(F)(F)F [Compound 58] | 0.013 µM | > 10 µM
O=S(=O)(c1cccc(C(F)(F)F)c1)N1CCC(c2n[nH]c3ccc(C(c4ccc(Cl)cc4)c4ccc(Cl)cc4)cc23)CC1 [Compound 59] | 0.374 µM | > 10 µM
COC(=O)c1cccc(S(=O)(=O)N2CCC(c3n[nH]c4ccc(C(c5ccc(Cl)cc5)c5ccc(Cl)cc5)cc34)CC2)c1 [Compound 60] | 0.065 µM | > 10 µM
O=C(O)c1cccc(S(=O)(=O)N2CCC(c3n[nH]c4ccc(C(c5ccc(Cl)cc5)c5ccc(Cl)cc5)cc34)CC2)c1 [Compound 61] | 0.191 µM | > 10 µM
